The results in this text go back to US11980607B2, “Methods of treating malignant lymphoproliferative disorders” (Actuate Therapeutics Inc., priority 2018, dated 2024).

One assay deals with SUDHL-4 cell line. Description: Dose response of combinations (MTS viability, day 3). Conditions: SUDHL-4, combined with 0.5 μM 9-ING-41, day 3 MTS. In kind it is cell-based. As to the method: (§1) FIGS. 2A-2O show the viability of lymphoma cells with chemotherapy agents in combination with 9-ING-41. 10,000 cells (FIGS. 1A, F, K: Daudi; FIGS. 1B, G, L: SUDHL-4; FIGS. 1C, H, M: KPUM-UH1; FIGS. 1D, I, N: Karpas 422; E, J, O: TMD8) were plated per well of a 96-well plate and treated with a dose response series of both 9-ING-41 (0-0.5 μM) and Venetoclax (0-5,000 nM) (FIGS. 1A-E) or BAY-1143572 (0-50 μM) (FIGS. 1F-J) or Idelalisib (0-50 μM) (FIGS. 1K-O) in triplicate. Viability after 3 days was analyzed using the MTS assay. Briefly, 20 μl of MTS reagent was added to cells and incubated for 2 hours and, the absorbance at 490 nm was read using a Biotek plate reader. Relative absorbance is calculated after setting the average absorbance of the no-treatment control as 1. Absorbance at OD=490 nm increases proportionally to cell density.
(§2) Daudi, SUDHL-4, KPUM-UH1, Karpas 422, or TMD8 cells were treated simultaneously with a series of concentrations of 9-ING-41 (0 μM, 0.05 μM, 0.5 μM) and either Venetoclax (0 nM, 0.5 nM, 5 nM, 50 nM, 500 nM, 5000 nM), BAY-1143572 (0 μM, 0.005 μM, 0.05 μM, 0.5 μM, 5 μM, 50 μM), or Idelalisib (0 μM, 0.005 μM, 0.05 μM, 0.5 μM, 5 μM, 50 μM). Viability at day 3 using an MTS assay was determined as described above. The background absorbance was subtracted from the A490 of the samples and the A490 of the vehicle/no-treatment control was set to 1, and the relative A490s of the rest of the samples were calculated. The IC50 was calculated as the concentration of the drug at which A490 reached 0.5. Additive effects were calculated as a fold change in the IC50 of a novel agent when combined with 0.5 μM of 9-ING-41.

The subject of the next assay is KPUMUH1 cell line. The description is as above. In kind it is cell-based. Conditions: KPUMUH1, combined with 0.5 μM 9-ING-41, day 3 MTS. As to the method: as §1, §2

For `CC1(C)CCC(CN2CCN(c3ccc(C(=O)NS(=O)(=O)c4ccc(NCC5CCOCC5)c([N+](=O)[O-])c4)c(Oc4cnc5[nH]ccc5c4)c3)CC2)=C(c2ccc(Cl)cc2)C1` [Venetoclax], the “Reduction in the IC50 value on combination with 9-ING-41” value in the assay on SUDHL-4 cell line was determined as 8 fold; in the assay on KPUMUH1 cell line, 2 fold.

Take `COc1cc(F)ccc1-c1ncnc(Nc2cccc(C[S@](C)(=N)=O)c2)n1` [BAY-1143572]: the “Reduction in the IC50 value on combination with 9-ING-41” value in the assay on SUDHL-4 cell line is 8 fold.
